*1 amine or outer side, *2 acyl side, *3 side chain or, on linkers, in order; H or OH if unused. Where a SMILES comes first, the peptide text is derived from it. Bridges are numbered along the chain shown (N, C = ends). Roman numbers before positions name the chains, in order. Side-chain parts run from the residue outwards. [ ]: non-standard residue; d: D form. The star is where a group is joined. X35 = NCCOc1ccc(C[C@H](N[*:1])C(=O)CC(Cc2ccc3ccccc3c2)C(=O)[*:2])cc1; PEG12 = NCCOCCOCCOCCOCCOCCOCCOCCOCCOCCOCCOCCOCCC(=O)O; NH(CH2CH2O)2CH2CH2NMe3+ = C[N+](C)(C)CCOCCOCCN*; Trp(7-Me) = Cc1cccc2c(C[C@H](N)C(=O)O)c[nH]c12; C18 diacid = O=C(O)CCCCCCCCCCCCCCCCC(=O)*; γGlu = O=C(O)[C@H](CCC(=O)[*:2])N[*:1]; 2Nal = N[C@@H](Cc1ccc2ccccc2c1)C(=O)O; AEF = NCCOc1ccc(C[C@H](N)C(=O)O)cc1; X2 = C[N+](C)(C)C[C@@H](CC(=O)O)N*; 3Pal = N[C@@H](Cc1cccnc1)C(=O)O; Pen = CC(C)(S)[C@H](N)C(=O)O; Suc = O=C(CCC(=O)[*:2])[*:1]; Thp = NC1(C(=O)O)CCOCC1; AEEA = NCCOCCOCC(=O)O; Sar = CNCC(=O)O
What was measured:
IL-23R = target: T1, IL-23R (Homo sapiens, UniProt Q5VWK5); assay: IL23R Reporter Assay; type: cell-based; details: HEK293 cells containing IL-23R, IL-12Rβ1 and STAT-inducible firefly luciferase reporter; 10 ng/mL IL-23 (EC90); 5 h
T1 construct: HEK293 cells containing IL-23R, IL-12Rβ1 and a firefly luciferase reporter gene driven by a STAT-inducible promoter (Promega); host or cells: HEK293
T1 sequence (Q5VWK5 24-629): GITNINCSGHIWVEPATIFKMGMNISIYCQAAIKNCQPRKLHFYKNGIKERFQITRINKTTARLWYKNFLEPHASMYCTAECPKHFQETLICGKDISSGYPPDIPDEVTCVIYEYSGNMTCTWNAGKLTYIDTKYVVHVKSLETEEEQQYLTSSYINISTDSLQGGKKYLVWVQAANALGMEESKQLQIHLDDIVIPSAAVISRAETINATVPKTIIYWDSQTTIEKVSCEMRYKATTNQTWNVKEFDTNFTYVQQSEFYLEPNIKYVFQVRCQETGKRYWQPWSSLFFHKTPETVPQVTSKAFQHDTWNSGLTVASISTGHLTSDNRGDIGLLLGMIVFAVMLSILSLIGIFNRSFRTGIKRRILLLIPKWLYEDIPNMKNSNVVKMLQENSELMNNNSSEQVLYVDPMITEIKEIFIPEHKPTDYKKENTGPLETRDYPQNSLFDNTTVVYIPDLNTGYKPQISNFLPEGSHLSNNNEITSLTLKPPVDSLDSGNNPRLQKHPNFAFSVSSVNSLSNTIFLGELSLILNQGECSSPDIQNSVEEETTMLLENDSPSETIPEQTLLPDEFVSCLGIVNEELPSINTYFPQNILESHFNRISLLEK
Method in brief: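 IC50 values were fitted with a 4-parameter Hill equation to luciferase signal, scaled between IL-23-only wells (0% inhibition) and 30 μM reference inhibitor (100%). The readout was a STAT-inducible reporter in IL-23R/IL-12Rβ1 HEK293 cells, stimulated with added 10 ng/mL IL-23 (EC90) for 5 h at 37° C and developed with BioGlo.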

[1] = system: IL-23-stimulated phosphorylated STAT3 in peripheral blood mononuclear cells (PBMCs); assay: PBMC pSTAT3 Assay; type: cell-based; details: PBMCs from healthy donors; 30 min preincubation with peptide; IL-23 5 ng/mL for 30 min; phospho-STAT3 by MSD
Method in brief: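 Phospho-STAT3 quantified by Meso Scale assay in lysates of PBMCs exposed to IL-23 (5 ng/mL, 30 min, 37 °C) after 30 min peptide pretreatment. Cells were cryopreserved donor PBMCs activated 4 days with anti-CD3 plus IL-1β (100 ng/mL) and starved ~4 h; IC50 reported.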

| Structure (SMILES) | IC50 (IL-23R) [nM] | IC50 [1] [nM] |
| --- | --- | --- |
| CC(=O)NCCCC[C@@H]1NC(=O)[C@H](Cc2c[nH]c3c(C)cccc23)NC(=O)[C@H]([C@@H](C)O)NC(=O)[C@H](CC(N)=O)NC(=O)[C@@H](NC(=O)[C@@H](CCCNC(=N)N)NC(=O)COCCOCCNC(=O)COCCOCCNC(=O)CC[C@H](NC(=O)CCCCCCCCCCCCCCCCC(=O)O)C(=O)O)C(C)(C)SSC(C)(C)[C@@H](C(=O)N[C@@H](Cc2ccc(OCCN)cc2)C(=O)N[C@@H](Cc2ccc3ccccc3c2)C(=O)NC2(C(=O)N[C@@H](CCC(=O)O)C(=O)N[C@@H](CC(N)=O)C(=O)N[C@@H](Cc3cccnc3)C(=O)N(C)CC(=O)NCCOCCOCC[N+](C)(C)C)CCOCC2)NC1=O [compound 67, HOC18gEPEG2PEG2CO-r-Pen(3)-N-T-7MeW-K(Ac)-Pen(3)-AEF-2Nal-THP-E-N-3Pya-Sar-CONH(PEG3a)] ({C18 diacid-γGlu-AEEA-AEEA}-[dR][Pen]NT[Trp(7-Me)]K(Ac)[Pen][AEF][2Nal][Thp]EN[3Pal][Sar]-{NH(CH2CH2O)2CH2CH2NMe3+}; disulfide 2-7) | 50 to 500 | 0.5 to 5 |
| CC(=O)NCCCC[C@@H]1NC(=O)[C@H](Cc2c[nH]c3c(C)cccc23)NC(=O)[C@H]([C@@H](C)O)NC(=O)[C@H](CCCCNC(=O)COCCOCCNC(=O)COCCOCCNC(=O)CC[C@H](NC(=O)CCCCCCCCCCCCCCCCC(=O)O)C(=O)O)NC(=O)[C@@H](NC(=O)[C@@H](CCCNC(=N)N)NC(=O)CCC(=O)N[C@H](CC(=O)O)C[N+](C)(C)C)C(C)(C)SSC(C)(C)[C@@H](C(=O)N[C@@H](Cc2ccc(OCCN)cc2)C(=O)N[C@@H](Cc2ccc3ccccc3c2)C(=O)NC2(C(=O)N[C@@H](CCC(=O)O)C(=O)N[C@@H](CC(N)=O)C(=O)N[C@@H](Cc3cccnc3)C(=O)N(C)CC(N)=O)CCOCC2)NC1=O [compound 18, succiniccarn-r-Pen(3)-K(PEG2PEG2gEC18OH)-T-7MeW-K(Ac)-Pen(3)-AEF-2Nal-THP-E-N-3Pya-Sar-CONH2] ({X2-Suc}-[dR][Pen]K([AEEA-AEEA-γGlu-C18 diacid])T[Trp(7-Me)]K(Ac)[Pen][AEF][2Nal][Thp]EN[3Pal][Sar]-NH2; disulfide 2-7) | 50 to 500 | < 0.5 |
| CC(=O)NCCCC[C@@H]1NC(=O)[C@H](Cc2c[nH]c3c(C)cccc23)NC(=O)[C@H]([C@@H](C)O)NC(=O)[C@H](CC(N)=O)NC(=O)[C@@H](NC(=O)[C@@H](CCCCNC(=O)CCOCCOCCOCCOCCOCCOCCOCCOCCOCCOCCOCCOCCNC(=O)CC[C@H](NC(=O)CCCCCCCCCCCCCCCCC(=O)O)C(=O)O)NC(C)=O)C(C)(C)SSC(C)(C)[C@@H](C(=O)N[C@@H](Cc2ccc(OCCN)cc2)C(=O)N[C@@H](Cc2ccc3ccccc3c2)C(=O)NC2(C(=O)N[C@@H](CCC(=O)O)C(=O)N[C@@H](CC(N)=O)C(=O)N[C@@H](Cc3cccnc3)C(=O)N(C)CC(N)=O)CCOCC2)NC1=O [compound 117, MeCO-k(PEG12gEC18OH)-Pen(3)-N-T-7MeW-K(Ac)-Pen(3)-AEF-2Nal-THP-E-N-3Pya-Sar-CONH2] (Ac-[dK]([PEG12-γGlu-C18 diacid])[Pen]NT[Trp(7-Me)]K(Ac)[Pen][AEF][2Nal][Thp]EN[3Pal][Sar]-NH2; disulfide 2-7) | < 50 | < 0.5 |
| CC(=O)NCCCC[C@@H]1NC(=O)[C@H](Cc2c[nH]c3c(C)cccc23)NC(=O)[C@H]([C@@H](C)O)NC(=O)[C@H](CC(N)=O)NC(=O)[C@@H](NC(C)=O)C(C)(C)SSC(C)(C)[C@@H](C(=O)N[C@@H](Cc2ccc(OCCN)cc2)C(=O)CC(Cc2ccc3ccccc3c2)C(=O)NC2(C(=O)N[C@@H](CCC(=O)O)C(=O)N[C@@H](CC(N)=O)C(=O)N[C@@H](Cc3cccnc3)C(=O)N(C)CC(=O)N[C@@H](CCCCNC(=O)COCCOCCNC(=O)COCCOCCNC(=O)CC[C@H](NC(=O)CCCCCCCCCCCCCCCCC(=O)O)C(=O)O)C(=O)N(C)C)CCOCC2)NC1=O (stereo partly drawn) [compound 149, MeCO-Pen(3)-N-T-7MeW-K(Ac)-Pen(3)-AEF-2Nal-THP-E-N-3Pya-Sar-K(PEG2PEG2gEC18OH)-CON(Me)2] (I: Ac-[Pen]NT[Trp(7-Me)]K(Ac)[Pen] / II: [Thp]EN[3Pal][Sar]K([AEEA-AEEA-γGlu-C18 diacid])-NMe2; disulfide I:1-I:6; linker I:C-II:N via X35) | ≥ 500 | ≥ 5 |

Reference: patent US20260250320A1, “LIPIDATED PEPTIDE INHIBITORS OF INTERLEUKIN-23 RECEPTOR” (Janssen Pharmaceutica NV, priority 2023, published 2026)
